Reference: patent US20120003270A1, “6-SUBSTITUTED ISOFLAVONOID COMPOUNDS AND USES THEREOF” (priority 2008, published 2012)
Marks after values point to notes of the source that are not given here.

Key:
5-lipoxygenase (5-LO) = assay: Synthesis of LTB4 and its metabolites in calcium ionophore-stimulated neutrophils (HPLC); format: cell-based, human; conditions: for IC50: Neutrophil, human neutrophils, calcium ionophore, read-out: IC50 for the production of LTB4
Protocol: The pathway for LTB4 synthesis involves initial release of AA from phospholipids by a Ca-dependent PLA2. The free AA is then oxygenated at by 5-LO (requiring enzyme activation by FLAP) to generate an epoxide intermediate (LTA4). LTA4 is then converted to LTB4 by LTA4 hydrolase. LTB4 is metabolised (and deactivated) by a cytochrome P-(CYP) 450 […] to produce 20-hydroxy and 20-carboxy metabolites. These metabolites are also measured in the HPLC assay.
Neutrophils were isolated from citrated human venous blood to >90% purity by centrifugation through Ficoll, dextran sedimentation and lysis of erythrocytes (Boyum 1986). Cells were washed in HEPES buffered Hanks solution (HBHS) and then suspended at 4.5 million cells/mL in HBHS containing 0.1% BSA (HBHS+BSA).
Experiments had been carried out previously to optimise the stimulation of neutrophils by calcium ionophore. At 37° C., 900 μL of cell suspension (4 million cells) was incubated with 3′,7-dihydroxyisoflav-3-ene (or vehicle) in 10 μL DMSO for 5 min before addition of 100 μL of 25 ng/μL calcium ionophore (free acid form, Sigma) with 0.5% DMSO in HBHS containing 0.1% bovine serum albumin (HBHS+BSA). The cells were incubated for 10 min then pelleted by centrifugation at 1200× g at 4° C. for 5 min, and the cell free supernatant used to quantitate the levels of LTB4 and its metabolites.
To each 900 μL aliquot of the supernatant, 25 μL of 2.5 ng/μL prostaglandin B2 (PGB2) in ethanol was added as internal standard. The solution was acidified to […] with 2M formic acid and the mixture extracted with 2 mL ethyl acetate and vigorous vortexing. The organic layer was collected and dried under nitrogen in a glass vial before being reconstituted in 50 μL of the reconstitution solution (water:methanol:acetonitrile at 2:1:1).
Analysis was carried out using a HPLC system with a 125-4 LiChrospher®100 RP-18 (5 μm) column (Agilent Technologies) and a gradient system adapted from a published method (Mita et al. 1988) to separate LTB4, its oxidation products 20-hydroxy LTB4 (20-OH-LTB4) and 20-carboxy LTB4 (20-COOH-LTB4), as well as PGB2. At 1 ml/min flow rate, a combination of three different mobile phase solutions were used. UV absorbance was monitored at 270 nm, and LTB4 and its metabolites were quantitated by comparison of peak areas with that of internal standard and a standard curve prepared earlier.

[1] = tested on: serum-treated zymozan air pouch inflammation; assay: Rat air pouch assay; format: in vivo; conditions: for Cells in lavage fluid (×10^−7): intrapouch, mean ± SD; for Cells in lavage fluid (×10^−7) / PMN in tissue sections (per 100 squares): 4 h after STZ; for PMN in tissue sections (per 100 squares): pouch wall
Protocol: Air pouches were raised on the dorsum of female Dark Agouti rats, approximately seven weeks of age. To promote the formation of a cellular membrane lining the inside of each pouch, the pouches were maintained by re-inflating on days 2 and 5 after the initial injection of air. On re-inflation, the pouch was first deflated to ensure the needle was positioned correctly, before being re-inflated with 2 mL of sterile air. Using this protocol, the pouches remained inflated until use on day 7, when they were injected with 0.5 ml of either test compound or vehicle control. After 15 min, air pouches were injected with serum-treated zymozan (STZ—500 μg). Lavage of the air pouch (4×2 ml lavages) was performed at 4 h and leucocytes counted, after which the rats were killed, the air pouch excised and processed in formalin for histology. The sections were blinded to the person counting. Using a graticule with 100 squares and the 40× objective, the number of polymorphs (PMN) was counted in the pouch lining at 10 different and non-adjacent sites. Group sizes were 5-6 rats. Data were analysed for statistical significance within each experiment and using an unpaired t test. Compounds (1) and (3) were examined in this assay.

prostacyclin (PGI2) = assay: 6-keto PGF1α (prostacyclin) synthesis in IL-1β stimulated HUVECs (RIA); format: cell-based, human; conditions: overnight, mean+SEM, n=3
Protocol: Cultured human umbilical vein endothelial cells (HUVECs—Vascular Biology Laboratory, Hanson Institute, Adelaide SA) were removed harvested in 0.25% trypsin-EDTA. After quenching and further washing in RPMI-10% FCS, the cells were resuspended in fresh medium at 1-1.5×10^5 cells per ml and plated out in gelatin coated wells at 2 ml per well. After incubation overnight in 5% CO2 at 37° C., the medium was refreshed and the cells returned to the incubator and allowed to equilibrate for approximately 2 h. Test compounds at concentrations of 0, 1, 10 or 100 μM were added to the cells, and 30 minutes later, stimulated by interleukin-1β (IL-1β-10 μl of a 2 ng/ml solution). After overnight incubation at 37° C., supernatants were collected by centrifugation at 2000 rpm for 5 min and stored at −20° C. Production of prostacyclin after overnight incubation was measured by radioimmunoassay (RIA). Because PGI2 is labile in aqueous medium, the stable hydrolysis product 6-keto PGF1α, was measured as a surrogate marker. Results are expressed as mean+SEM, n=3. Differences between means were analysed by one-way ANOVA followed by Tukey's test for multiple comparisons. Differences between means were regarded as significant when p<0.05.

[2] = treated rats compared with controls

For `O=C(O)C1CCCN1Cc1cc2c(cc1O)OCC(c1ccc(O)cc1)=C2` (centres unmarked) [Compound (3)], the “20-COOH-LTB4, % of maximum release” value (5-lipoxygenase (5-LO); 0.1 μM) was 114.9%, the “20-OH-LTB4, % of maximum release” value (5-lipoxygenase (5-LO); 0.1 μM) was 82.8% and the “LTB4, % of maximum release” value (5-lipoxygenase (5-LO); 0.1 μM) was 93.6%. For the same compound, the “20-COOH-LTB4, % of maximum release” value (5-lipoxygenase (5-LO); 1 μM) was 105.7%, the “20-OH-LTB4, % of maximum release” value (5-lipoxygenase (5-LO); 1 μM) was 99.0% and the “LTB4, % of maximum release” value (5-lipoxygenase (5-LO); 1 μM) was 97.0%. The “20-COOH-LTB4, % of maximum release” value (5-lipoxygenase (5-LO); 10 μM) was 145.2%, the “20-OH-LTB4, % of maximum release” value (5-lipoxygenase (5-LO); 10 μM) was 6.1% and the “LTB4, % of maximum release” value (5-lipoxygenase (5-LO); 10 μM) was 0.0%. The IC50 (5-lipoxygenase (5-LO)) was 5.4 µM, the “Cells in lavage fluid (×10^−7)” value [1] was 1.73 ± 0.84 ×10^−7 and the “PMN in tissue sections (per 100 squares)” value [1] was 35.85 ± 12.89 per 100 squares. The “PGF1α” value (prostacyclin (PGI2); 1 μM) was 0.353 ± 0.045 pg/mL, the “PGF1α (pg/ml)” value (prostacyclin (PGI2); 10 μM) was 0.335 ± 0.039^ pg/ml and the “PGF1α” value (prostacyclin (PGI2); 100 μM) was 0.308 ± 0.065 pg/mL.
`CN(C)Cc1cc2c(cc1O)OCC(c1ccc(O)cc1)=C2` [Compound (1)] was tested, and the “20-COOH-LTB4, % of maximum release” value (5-lipoxygenase (5-LO); 0.1 μM) was 82.0%, the “20-OH-LTB4, % of maximum release” value (5-lipoxygenase (5-LO); 0.1 μM) was 95.2% and the “LTB4, % of maximum release” value (5-lipoxygenase (5-LO); 0.1 μM) was 94.3%. The “20-COOH-LTB4, % of maximum release” value (5-lipoxygenase (5-LO); 1 μM) was 99.6%, the “20-OH-LTB4, % of maximum release” value (5-lipoxygenase (5-LO); 1 μM) was 77.7% and the “LTB4, % of maximum release” value (5-lipoxygenase (5-LO); 1 μM) was 78.1%. For the same compound, the “20-COOH-LTB4, % of maximum release” value (5-lipoxygenase (5-LO); 10 μM) was 0.0%, the “20-OH-LTB4, % of maximum release” value (5-lipoxygenase (5-LO); 10 μM) was 0.0% and the “LTB4, % of maximum release” value (5-lipoxygenase (5-LO); 10 μM) was 0.0%. The IC50 (5-lipoxygenase (5-LO)) was 4.3 µM, the “Cells in lavage fluid (×10^−7)” value [1] was 0.43 ± 0.21^b ×10^−7 and the “PMN in tissue sections (per 100 squares)” value [1] was 13.03 ± 7.10 per 100 squares. For the same compound, the “Number of extravasated PMN in the pouch wall, fold less than controls” value [1, 2] was “more than 3 fold”, the “Number of exudate cells in the pouch cavity, fold less than controls” value [1, 2] was “more than 3 fold” and the “PGF1α” value (prostacyclin (PGI2); 1 μM) was 0.667 ± 0.088 pg/mL. The “PGF1α” value (prostacyclin (PGI2); 10 μM) was 0.584 ± 0.059 pg/mL and the “PGF1α” value (prostacyclin (PGI2); 100 μM) was 0.277 ± 0.07 pg/mL.
